Reference: patent US7875638B2, “Synthesis of epothilones, intermediates thereto, analogues and uses thereof” (Sloan-Kettering Institute for Cancer Research, priority 2002, dated 2011)
In brackets after ≈: the same amount, converted by molar mass. Like-named read-outs stand apart in the source and are kept apart here.

Experiments:
[1] = tested on: Ovcar-4; experiment: XTT cell growth inhibition, Ovcar-4; assay type: cell-based; settings: Homo sapiens
[2] = Octanol-water partition (POW) number by HPLC; assay type: physicochemical; settings: HPLC estimate, pH 7.4 buffer; read-out: Lipophilicity octanol/water partition (POW)
Protocol: Determination of partition of octanol-water (POW) number. An HPLC method is used to estimate octanol-water partition. An Agilent 1100 HPLC system is used with an eclipse XDB C18 column 4.6×250 mm with a mobile phase of 60% acetonitrile/40% 25 mM potassium phosphate buffer at pH 7.4 with a flow rate of 0.8 ml per min. and the eluent is monitored at 250 nm. The standards used are benzyl alcohol, acetophenone, benzophenone, naphthalene, diphenyl ether and dibenzyl with known POW of […] respectively. Sodium dichromate is used to evaluate time zero which is 2.5 min and the retention times for the standards are 3.9, 5.4, 10.6, 14, 18.7 and 19.8 min, respectively. The k value is calculated by the formula of k=(trt−t0)/t0. Linear regression of log k vs. log POW gives a straight line with r^2=0.966. This graph is used to evaluate the POW value of the epothilone analogs.

[3] = Solubility in water; settings: water
[4] = tested on: MRC-5; experiment: XTT cell growth inhibition, MRC-5; assay type: cell-based, human
[5] = tested on: human xenografts in nude mice, such as MX-1; set-up: Relative therapuetic index at MTD: key to the marks not given beside the values
[6] = tested on: MOLP-5; experiment: XTT cell growth inhibition, MOLP-5; assay type: cell-based; settings: Homo sapiens, read-out: IC50 (nM), MOLP-5
[7] = tested on: Human CD34+ stem cells; experiment: Apoptosis and 2 weeks progenitor assays on CD34+ stem cells; assay type: cell-based; settings: 24 hours incubation, umbilical cord blood CD34+
Protocol: Then drugs were washed out and annexin V staining was performed. Solid area represents vehicle control and open area represents drug treated group. There is no obvious increased apoptosis of non-cycling human CD34+ cells with short period of exposure to epothilones.
Drug cytotoxicity to hematopoietic stem cells is always a major concern. Human CD34+ stem cells were isolated from umbilical cord blood and incubated with either dEpoB or Fludelone alone for 24 hours. After washing out the drugs, apoptosis assays and 2 weeks progenitor assays were performed to evaluate the influence of epothilone to stem cells.

[8] = tested on: IGROV; experiment: XTT cell growth inhibition, IGROV; assay type: cell-based; settings: Homo sapiens, read-out: IC50 (nM), IGROV
[9] = tested on: HT-29; experiment: XTT cell growth inhibition, HT-29; assay type: cell-based; settings: Homo sapiens
[10] = tested on: SKI-DLBCL; experiment: XTT cell growth inhibition, SKI-DLBCL; assay type: cell-based; settings: Homo sapiens; Lymphoma; XTT tetrazonium assay
[11] = tested on: RPMI8226 myeloma cell line; experiment: Annexin V staining, RPMI8226; assay type: cell-based, human; settings: 24 hours treatment
Text: In early apoptotic cells, the membrance phospholipids phosphatidylserine (PS) is translocated from the inner to the outer leaflet of the plasma membrane, thereby exposing PS to the external cellular environment. Annexin V is a 35-36 kD Ca^+2 dependent phospholipid-binding protein that has a high affinity for PS, and binds to cells with exposed PS. In conjunction with a vital dye such as 7-amino-actinomycin (7-AAD) staining dead cells, this assay allows the identification of early apoptotic cells.

[12] = tested on: CAG myeloma cell lines; experiment: Cell cycle analysis (propidium iodide DNA staining), CAG; assay type: cell-based, human; settings: 31.25 nM
Text: CAG myeloma cell lines were used.

[13] = tested on: RL; experiment: XTT cell growth inhibition, RL; assay type: cell-based; settings: Homo sapiens, read-out: IC50 (nM), RL
[14] = tested on: CAG; experiment: XTT cell growth inhibition, CAG; assay type: cell-based; settings: Homo sapiens, read-out: IC50 (nM), CAG
[15] = tested on: RPMI8226 myeloma cell lines; experiment: Cell cycle analysis (propidium iodide DNA staining), RPMI8226; assay type: cell-based, human; settings: 31.25 nM
Text: RPMI8226 myeloma cell lines were used.

[16] = tested on: OPM-2; experiment: XTT cell growth inhibition, OPM-2; assay type: cell-based; settings: Homo sapiens
[17] = tested on: human lung carcinoma xenograft (A549); experiment: A549 xenograft in nude mice; settings: for Tumor eradication: 29: after two more doses, dEpoB: 30 mg/kg, Q2Dx6
[18] = tested on: Ovarian cancer lines; experiment: XTT cell growth inhibition, ovarian cancer lines (mean); assay type: cell-based; settings: Homo sapiens, read-out: Mean IC50, ovarian lines
[19] = tested on: CCRF-CEM
Protocol: Cytotoxicity Assays. In preparation for in vitro cytotoxicity assays, cells were cultured at an initial density 2-5×10^4 cells per milliliter. […] For both methods, the absorbance of each well was measured with a microplate reader (Power Wave XS, Bio-Tek, Winooski, Vt.).
A typical experiment involves culturing cells (e.g., CCRF-CEM) at an initial density of 2-5×10^4 cells per ml. […] For cells that were grown in suspension (such as CCRF-CEM and its sublines), cytotoxicitiy is measured by using the 2,-3-bis(2-methoxy-4-nitro-5-sulfophenyl)-5 carboxanilide)-2H terazodium hydroxide (XTT)-microculture tetrazonium method in duplicate in 96-well microtiter plates. For both methods, the absorbance of each well is measured with a microplate reader (EL-340, Bio-Tek, Burlington, Vt.). Each run entails six or seven concentrations of the tested drugs. Dose-effect relationship data are analyzed with the median-effect plot.
Cytotoxicity Assays: In preparation for in vitro cytotoxicity assays, cells were cultured at an initial density 2-5×10^4 cells per milliliter. […] For both methods, the absorbance of each well was measured with a microplate reader (Power Wave XS, Bio-Tek, Winooski, Vt.).

[20] = tested on: RPMI8226; experiment: XTT cell growth inhibition, RPMI8226; assay type: cell-based; settings: Homo sapiens
[21] = tested on: SKOV3; experiment: XTT cell growth inhibition, SKOV3; assay type: cell-based; settings: Homo sapiens
[22] = tested on: paclitaxel resistant human lung carcinoma A549/Taxol xenograft; settings: 20 mg/kg
[23] = tested on: paclitaxel resistant human lung carcinoma A549/Taxol xenograft; experiment: A549/Taxol xenograft in nude mice
[24] = tested on: human colon carcinoma HCT-116 xenograft; experiment: HCT-116 xenograft in nude mice; settings: for Tumor relapse during follow-up to D200: Fludelone 20 and 30 mg/kg; for Tumor free following the cessation of treatment: mouse, in vivo
[25] = tested on: paclitaxel resistant human lung carcinoma A549/Taxol xenograft; settings: 20 mg/kg, Q2Dx7, 6 hr-i.v. infusion; cited from earlier work
[26] = in vitro; settings: mouse, plasma
Protocol: Stability of epothilones in mouse and in human liver S9 fraction. The stability study was carried out with a fully automated HPLC system which consisted of a Prospekt-2 (Spark Holland, Netherlands) sample preparation system and an Agilent 1100 HPLC system. Briefly, the Prospekt 2 picked up a C8 extraction cartridge and washed it with acetonitrile and water. The Agilent autosampler, set at 37° C., picked up 20 μl of the sample, loaded it onto the cartridge, washed it with water, then the Prospekt-2 diverted the mobile phase stream through the extraction cartridge onto the analytical column, Reliance Stable Bond C8 4×80 mm with guard column (MacMod, Chadds Ford, Pa.) and the eluent was monitored at 250 nm. […] Sample preparation involved the addition of equal volumes of plasma to PBS for a total volume of 300-400 μl, filtered, and the addition of 0.5-2 μl of the substrate (20 mM) to achieve about 30-50 mAU at 250 nm in the HPLC analysis. For pooled human liver microsome S9 fraction (Xeno Tech, Lenex, Kans.), 20 μl (400 μg) or S9 fraction was mixed with 280 μl of PBS then proceeded as above. The sampling period was controlled by the autosampler and peak area data were collected to compare the rate of disappearance of the parent compound.
Stability of epothilones in mouse and in human liver S9 fraction: The stability study was carried out with a fully automated HPLC system which consisted of a Prospekt-2 (Spark Holland, Netherlands) sample preparation system and an Agilent 1100 HPLC system. Briefly, the Prospekt 2 picked up a C8 extraction cartridge and washed it with acetonitrile and water. The Agilent autosampler, set at 37° C., picked up 20 μl of the sample, loaded it onto the cartridge, washed it with water, then the Prospekt-2 diverted the mobile phase stream through the extraction cartridge onto the analytical column, Reliance Stable Bond C8 4×80 mm with guard column (MacMod, Chadds Ford, Pa.) and the eluent was monitored at 250 nm. […] Sample preparation involves the addition of equal volumes of plasma to PBS for a total volume of 400 μl, filtered, and the addition of 0.5-2 μl of the substrate (20 mM) to achieve about 30-50 mAU at 250 nm in the HPLC analysis. For pooled human liver microsome S9 fraction (Xeno Tech, Lenex, Kans.), 20 μl (400 μg) or S9 fraction was mixed with 280 μl of PBS then proceeds as above. The sampling period was controlled by the autosampler and peak area data were collected to compare the rate of disappearance of the parent compound.

[27] = tested on: human colon carcinoma HCT-116 xenograft; settings: 96 h
[28] = read-out: IC50 (μM), CCRF-CEM, XTT assay following 72 h inhibition, Table 1-2
[29] = read-out: IC50, CCRF-CEM(C), XTT assay following 72 h inhibition, Table 1-3

Question: With C/C1=C/CC(/C(C)=C/c2csc(C)n2)OC(=O)C[C@H](O)C(C)(C)C(=O)[C@H](C)[C@@H](O)[C@@H](C)CCC1 (stereo partly drawn) [Compound 1, 12,13-desoxyepothilone B, reference compound] as the molecule, how does the IC50 ([1]; OVCAR-4, read-out: IC50 (nM), Ovcar-4) read?
Answer: 16 ± 2.5 nM

Question: What about the chromatographic logP [2] of the same molecule?
Answer: 4.4

Question: And the solubility [3]?
Answer: 9.4 µg/mL (≈ 19.1 µM)

Question: What about the IC50 ([4]; Homo sapiens, MRC5, read-out: IC50 (nM), MRC-5) of the same molecule?
Answer: 8.2 ± 4.3 nM

Question: What about the “Dose accomplishing complete suppression of tumor in a variety of xenografts” value ([5]; mouse, in vivo) of the same molecule?
Answer: 30 mg/kg

Question: What about the “Maximal b.w. % drop without death” value ([5]; mouse, in vivo) of the same molecule?
Answer: 32%

Question: And the IC50 [6]?
Answer: 68.6 ± 5.5 nM

Question: And the “Toxicity on non-cycling stem cells” value [7]?
Answer: no significant toxicity

Question: What about the IC50 [8] of the same molecule?
Answer: 15 ± 3.8 nM

Question: What about the IC50 ([9]; HT-29, read-out: IC50 (nM), HT-29) of the same molecule?
Answer: 7.2 ± 2.2 nM

Question: And the IC50 [10]?
Answer: 72 ± 9.8 nM

Question: And the “Apoptosis (Annexin V / 7-AAD)” value [11]?
Answer: majority of cell either enter apoptosis or are dead

Question: And the Cell cycle arrest [12]?
Answer: absolutely blocked cell cycle at G2M phase

Question: And the IC50 [13]?
Answer: 90 ± 11 nM

Question: What about the IC50 [14] of the same molecule?
Answer: 61.3 ± 4.2 nM

Question: What about the Cell cycle arrest [15] of the same molecule?
Answer: absolutely blocked cell cycle at G2M phase

Question: What about the IC50 ([16]; OPM-2, read-out: IC50 (nM), OPM-2) of the same molecule?
Answer: 38.9 ± 3.3 nM

Question: And the Tumor eradication [17]?
Answer: no tumor eradication

Question: What about the IC50 [18] of the same molecule?
Answer: 16.5 nM

Question: What about the IC50 ([19]; human) of the same molecule?
Answer: 0.0056 ± 0.0028 µM

Question: What about the IC50 [19, 28] of the same molecule?
Answer: 0.0036 µM

Question: And the IC50 [19, 29]?
Answer: 0.0036 µM

Question: What about the IC50 ([19]; read-out: IC50, CCRF-CEM, XTT assay following 72 h inhibition, Table 1-4) of the same molecule?
Answer: 0.0036 µM

Question: And the IC50 ([20]; RPMI-8226, read-out: IC50 (nM), RPMI8226)?
Answer: 36.7 ± 2 nM

Question: What about the IC50 ([21]; SK-OV-3, read-out: IC50 (nM), SKOV3) of the same molecule?
Answer: 13 ± 4.7 nM

Question: What does the source list for C/C(=C\c1csc(C)n1)[C@@H]1C/C=C(/C(F)(F)F)C/C=C/[C@H](C)[C@H](O)[C@@H](C)C(=O)C(C)(C)[C@@H](O)CC(=O)O1 [Compound 29, 26-trifluoro-trans-9,10-dehydro-12,13-desoxyepothilone B]?
Answer: Tumor reduction, % of the pretreatment control [22]: 24.4%; IC50 ([1]; OVCAR-4, Ovarian Ca, XTT tetrazonium assay, read-out: IC50 (nM), Ovcar-4): 1.8 ± 0.7 nM; chromatographic logP [2]: 3.3; solubility [3]: 20 µg/mL (≈ 36.8 µM); IC50 ([4]; MRC5, Embryonic lung fibroblasts (human), XTT tetrazonium assay, read-out: IC50 (nM), MRC-5): 7.4 ± 2.7 nM; Body weight recovery upon suspension of drug treatment, % of the pretreatment control ([23]; 20 mg/kg): 90%; Maximal body weight decrease ([23]; 20 mg/kg): 24%; Tumor growth suppression ([23]; 29: 20 mg/kg, 28: 4 mg/kg): totally suppressed; Maximal b.w. % drop without death ([5]; mouse, in vivo): 33%; Relative therapuetic index at MTD ([5]; mouse, in vivo): +++++; Curative therapeutic dose range ([5]; mouse, in vivo, iv): 10 to 30 mg/kg; Optimal dose for i.v. infusion ([5]; mouse, in vivo, iv): 20 to 30 mg/kg; Therapeutic dose regimen for Q2D 6 hr-iv infusion ([5]; mouse, in vivo, iv): 10 to 30 mg/kg; Optimal dose for the oral administration ([5]; oral): 20 mg/kg, QD or 30 mg/kg Q2D; IC50 ([6]; Myeloma, XTT tetrazonium assay): 14.4 ± 2.6 nM; Maximal body weight loss without lethality ([24]; 30 mg/kg, end of the 2nd cycle (D29)): 30%; Tumor relapse during follow-up to D200 ([24]; Taxol 20 mg/kg): no tumor relapse; Tumor relapse during follow-up to D200 ([24]; Taxol 20 mg/kg, listed as F3-deH-dEpoB): no tumor relapse in 4 out of 4 mice on D200; Tumor disappearance (mice) ([24]; Q2Dx4, 6 hr-i.v. infusion for 3 cycles, F3-deH-dEpoB 20 and 30 mg/kg, Taxol 20 mg/kg): 4 out of 4; Tumor free following the cessation of treatment ([24]; listed as 26-trifluoro-9,10-trans-dehdyro-epothilone D): over 5.2 months; Tumor free following the cessation of treatment ([24]; listed as Fludelone): over 5.3 months; Toxicity on non-cycling stem cells [7]: no significant toxicity; IC50 ([8]; Ovarian Ca, XTT tetrazonium assay): 2 ± 1.2 nM; IC50 ([9]; HT-29, Colon Ca, XTT tetrazonium assay, read-out: IC50 (nM), HT-29): 4 ± 1.7 nM; IC50 [10]: 60 ± 4.2 nM; Apoptosis (Annexin V / 7-AAD) [11]: majority of cell either enter apoptosis or are dead; Cell cycle arrest [12]: absolutely blocked cell cycle at G2M phase; IC50 ([13]; Lymphoma, XTT tetrazonium assay): 80 ± 11 nM; IC50 ([14]; Myeloma, XTT tetrazonium assay): 12 ± 1.8 nM; Cell cycle arrest [15]: absolutely blocked cell cycle at G2M phase; Effect on A549/Taxol xenograft (recent report) [25]: complete tumor growth suppression but failed to achieve tumor disappearance; IC50 ([16]; OPM-2, Myeloma, XTT tetrazonium assay, read-out: IC50 (nM), OPM-2): 8.2 ± 2.2 nM; half-life [26]: 3.53 ± 1.47 h; Body weight decrease without lethality ([17]; 25 mg/kg, Q2DX6, twice): ≤ 35%; Tumor eradication [17]: 4 of the 4; Cell kill [27]: > 11.6 log; IC50 [18]: 1.6 nM; Attenuation of cytotoxicity by the three fluorine atoms at C26, factor [19]: ≤ 4; IC50 ([19]; human): 0.0032 ± 0.0003 µM; Cytotoxicity relative to the benchmark compound dEpoB ([19]; in the cell): ~1.8 fold; IC50 [19, 28]: 0.0035 µM; IC50 [19, 29]: 0.0035 µM; IC50 ([20]; RPMI-8226, Myeloma, XTT tetrazonium assay, read-out: IC50 (nM), RPMI8226): 7.6 ± 1.2 nM; IC50 ([21]; SK-OV-3, Ovarian Ca, XTT tetrazonium assay, read-out: IC50 (nM), SKOV3): 1.6 ± 0.5 nM
